Source: patent publication US12351580B2, “NLRP3 modulators” (Innate Tumor Immunity, Inc., priority 2017, dated 2025)

These compounds were tested against T1, TLR7 (Homo sapiens, UniProt Q9NYK1) (assay: In vitro human TLR7 binding reporter assay (HEK-Blue, NF-kB/AP1-inducible SEAP)). Settings: activity range symbols.
T1 construct: host or cells: HEK-Blue cells (human HEK) co-expressing TLR7 and an NF-kB/AP1-inducible SEAP reporter
T1 sequence (Q9NYK1 27-1049): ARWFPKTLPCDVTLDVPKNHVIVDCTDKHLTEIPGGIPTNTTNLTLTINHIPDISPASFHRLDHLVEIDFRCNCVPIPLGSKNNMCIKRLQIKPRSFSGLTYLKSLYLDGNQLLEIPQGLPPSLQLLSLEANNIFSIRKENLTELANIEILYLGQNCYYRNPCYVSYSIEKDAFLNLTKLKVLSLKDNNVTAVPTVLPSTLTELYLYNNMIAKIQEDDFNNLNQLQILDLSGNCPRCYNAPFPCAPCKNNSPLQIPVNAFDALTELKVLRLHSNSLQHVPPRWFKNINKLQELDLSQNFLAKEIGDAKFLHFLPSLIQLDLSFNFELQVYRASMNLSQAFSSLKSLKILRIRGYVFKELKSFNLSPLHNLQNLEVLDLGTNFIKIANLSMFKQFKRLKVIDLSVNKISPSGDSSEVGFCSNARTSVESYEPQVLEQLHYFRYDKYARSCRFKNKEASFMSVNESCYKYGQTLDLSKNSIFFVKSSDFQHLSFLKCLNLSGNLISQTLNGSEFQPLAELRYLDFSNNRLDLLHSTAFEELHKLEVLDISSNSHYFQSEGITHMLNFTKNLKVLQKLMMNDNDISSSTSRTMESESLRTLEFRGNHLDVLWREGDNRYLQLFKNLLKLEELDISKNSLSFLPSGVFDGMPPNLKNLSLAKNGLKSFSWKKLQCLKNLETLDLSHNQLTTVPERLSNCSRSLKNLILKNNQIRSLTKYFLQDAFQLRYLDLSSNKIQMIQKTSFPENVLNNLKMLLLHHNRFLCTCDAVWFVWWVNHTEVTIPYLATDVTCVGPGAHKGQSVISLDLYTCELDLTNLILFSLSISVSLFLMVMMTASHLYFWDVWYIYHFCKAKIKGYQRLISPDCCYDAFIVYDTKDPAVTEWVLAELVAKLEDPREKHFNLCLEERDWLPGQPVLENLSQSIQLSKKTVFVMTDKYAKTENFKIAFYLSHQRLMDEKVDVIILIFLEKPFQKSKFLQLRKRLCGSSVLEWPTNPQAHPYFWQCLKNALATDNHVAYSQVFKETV
Format: cell-based
Procedure, shortened: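 Reporter cells are plated at 15,000 per well and rested 24 h. Next day, test compounds or DMSO are dispensed, followed by 18 h incubation at 37 °C, 5% CO2.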

EC50	SMILES
> 100 µM	CCN(Cc1nc2c(N)nc3cc(-n4cccn4)ccc3c2n1CCO)C(C)=O [Compound 476, N-{[4-amino-1-(2-hydroxyethyl)-7-(1H-pyrazol-1-yl)-1H-imidazo[4,5-c]quinolin-2-yl]methyl}-N-ethylacetamide]
> 100 µM	CCNCc1nc2c(N)nc3cc(-n4cccn4)ccc3c2n1CCO [Compound 477, 2-[4-amino-2-[(ethylamino)methyl]-7-(1H-pyrazol-1-yl)-1H-imidazo[4,5-c]quinolin-l-yl]ethan-1-ol]
> 100 µM	CCC(=O)N(CC)Cc1nc2c(N)nc3cc(-n4cccn4)ccc3c2n1CCO [Compound 478, N-{[4-amino-1-(2-hydroxyethyl)-7-(1H-pyrazol-1-yl)-1H-imidazo[4,5-c]quinolin-2-yl]methyl}-N-ethylpropanamide]
> 100 µM	CCN(Cc1nc2c(N)nc3cc(-n4cccn4)ccc3c2n1CC)C(C)=O [Compound 479, N-{[4-amino-1-ethyl-7-(1H-pyrazol-1-yl)-1H-imidazo[4,5-c]quinolin-2-yl]methyl}-N-ethylacetamide]
> 100 µM	CCC(=O)N(CC)Cc1nc2c(N)nc3cc(-c4cccs4)ccc3c2n1CC [Compound 480, N-{[4-amino-1-ethyl-7-(thiophen-2-yl)-1H-imidazo[4,5-c]quinolin-2-yl]methyl}-N-ethylpropanamide]
> 100 µM	CCC(=O)N(CC)Cc1nc2c(N)nc3cc(-n4cccn4)ccc3c2n1CC [Compound 481, N-{[4-amino-1-ethyl-7-(1H-pyrazol-1-yl)-1H-imidazo[4,5-c]quinolin-2-yl]methyl}-N-ethylpropanamide]
> 100 µM	CCN(Cc1nc2c(N)nc3cc(-c4cccs4)ccc3c2n1CCO)C(C)=O [Compound 482, N-{[4-amino-1-(2-hydroxyethyl)-7-(thiophen-2-yl)-1H-imidazo[4,5-c]quinolin-2-yl]methyl}-N-ethylacetamide]

The remaining lines, values behind:

SMILES	EC50
Nc1nc2cc(-c3cccs3)ccc2c2c1nc(CN1CCCC1=O)n2CCO [Compound 469, 1-{[4-amino-1-(2-hydroxyethyl)-7-(thiophen-2-yl)-1H-imidazo[4,5-c]quinolin-2-yl]methyl}pyrrolidin-2-one]	> 100 µM
CCC(=O)N(CC)Cc1nc2c(N)nc3cc(-c4cccs4)ccc3c2n1CCO [Compound 470, N-{[4-amino-1-(2-hydroxyethyl)-7-(thiophen-2-yl)-1H-imidazo[4,5-c]quinolin-2-yl]methyl}-N-ethylpropanamide]	> 100 µM
CCNCc1nc2c(N)nc3cc(-c4cccs4)ccc3c2n1CCO [Compound 471, 2-{4-amino-2-[(ethylamino)methyl]-7-(thiophen-2-yl)-1H-imidazo[4,5-c]quinolin-1-yl}ethan-1-ol]	> 100 µM
CCN(Cc1nc2c(N)nc3cc(-c4cccs4)ccc3c2n1CC)C(C)=O [Compound 472, N-{[4-amino-1-ethyl-7-(thiophen-2-yl)-1H-imidazo[4,5-c]quinolin-2-yl]methyl}-N-ethylacetamide]	> 100 µM
CCC(=O)N(CC)Cc1nc2c(N)nc3cc(-c4ccn[nH]4)ccc3c2n1CC [Compound 473, N-{[4-amino-1-ethyl-7-(1H-pyrazol-5-yl)-1H-imidazo[4,5-c]quinolin-2-yl]methyl}-N-ethylpropanamide]	> 100 µM
CCN(Cc1nc2c(N)nc3cc(-c4ccn[nH]4)ccc3c2n1CC)C(C)=O [Compound 474, N-{[4-amino-1-ethyl-7-(1H-pyrazol-5-yl)-1H-imidazo[4,5-c]quinolin-2-yl]methyl}-N-ethylacetamide]	> 100 µM
CCC(=O)N(CC)Cc1nc2c(N)nc3cc(-c4ccn[nH]4)ccc3c2n1CCO [Compound 475, N-{[4-amino-1-(2-hydroxyethyl)-7-(1H-pyrazol-5-yl)-1H-imidazo[4,5-c]quinolin-2-yl]methyl}-N-ethylpropanamide]	> 100 µM
